Data taken from paper PMC8078777 (PLoS Pathogens, 2021).
Several values for one entry are separate records, joined by “and”; a condition that tells them apart may be missing. Identical values can stand only once.

How the values were obtained:
NLPPp [1] = molecular target: T1, NLPPp (Phytophthora nicotianae, UniProt Q9AT28); experiment: Surface plasmon resonance binding to immobilized NLPPp; parameters: species or system Phytophthora parasitica; conditions: for Kd: SPR, steady-state affinity model, 50 mM MES, 150 mM NaCl, 5% DMSO, pH 5.8
T1 construct: made in house; host or cells: Pichia pastoris
T1 sequence (Q9AT28 20-237): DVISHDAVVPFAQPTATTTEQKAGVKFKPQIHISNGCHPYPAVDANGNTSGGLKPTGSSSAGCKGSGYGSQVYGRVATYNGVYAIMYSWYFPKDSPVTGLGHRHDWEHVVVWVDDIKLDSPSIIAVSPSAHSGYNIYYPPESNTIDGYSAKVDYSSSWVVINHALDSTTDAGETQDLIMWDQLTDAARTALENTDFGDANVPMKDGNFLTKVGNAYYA

NLPPp [2] = molecular target: T1, NLPPp; experiment: Tobacco leaf infiltration assay, NLPPp-induced necrosis; type: in vivo, Phytophthora parasitica; conditions: 400 nM NLPPp with different concentrations of compound, tobacco leaves, 24 h
BcNEP1 = tested on: BcNEP1; parameters: method as in doi:10.1016/j.pmpp.2010.06.003; conditions: cited from earlier work
NLPPp [3] = molecular target: T1, NLPPp; parameters: method as in doi:10.1016/j.pmpp.2010.06.003; conditions: cited from earlier work

| Compound | SPR binding to NLPPp (in words) (NLPPp [1]) | effect on NLPPp-induced necrosis (NLPPp [2]) | Kd (NLPPp [1]) | effect on necrosis-inducing action of BcNEP1 (BcNEP1) | effect against NLPPp (NLPPp [3]) |
| --- | --- | --- | --- | --- | --- |
| Cc1ccc2occ(C3N[C@H](C(=O)O)CS3)c(=O)c2c1 (stereo partly drawn) [6C3, (4R)-2-(6-methyl-4-oxo-4H-chromen-3-yl)thiazolidine-4-carboxylic acid] | nonspecific binding | inhibited |  |  |  |
| Cc1oc([C@@H](O)[C@H](O)[C@H](O)CO)cc1C(=O)O [6E11, 2-methyl-5-((1S,2R,3R)-1,2,3,4-tetrahydroxybutyl)furan-3-carboxylic acid, reference compound] |  | did not affect NLPPp cytotoxicity |  |  |  |
| COc1ccc(Nc2ccccc2C(=O)O)cc1 [6G7, 2-((4-methoxyphenyl)amino)benzoic acid] |  | inhibited | 71.9 ± 19.1 µM |  |  |
| O=C(Cc1c[nH]c2ccccc12)Nc1ccccc1CCOC(=O)Cc1c[nH]c2ccccc12 [7C8, 2-(2-(1H-indol-3-yl)acetamido)phenethyl 2-(1H-indol-3-yl)acetate] |  | inhibited | 40.5 µM and ~50 µM |  |  |
| O=C(N/N=C/c1ccc(O)c(O)c1)c1cc2ccccc2cc1O [dynasore] |  |  |  | reduced | ineffective |
